The target in assay [1] is T1, Polyunsaturated fatty acid 5-lipoxygenase (Mus musculus) (UniProt P48999).
T1 sequence (whole entry): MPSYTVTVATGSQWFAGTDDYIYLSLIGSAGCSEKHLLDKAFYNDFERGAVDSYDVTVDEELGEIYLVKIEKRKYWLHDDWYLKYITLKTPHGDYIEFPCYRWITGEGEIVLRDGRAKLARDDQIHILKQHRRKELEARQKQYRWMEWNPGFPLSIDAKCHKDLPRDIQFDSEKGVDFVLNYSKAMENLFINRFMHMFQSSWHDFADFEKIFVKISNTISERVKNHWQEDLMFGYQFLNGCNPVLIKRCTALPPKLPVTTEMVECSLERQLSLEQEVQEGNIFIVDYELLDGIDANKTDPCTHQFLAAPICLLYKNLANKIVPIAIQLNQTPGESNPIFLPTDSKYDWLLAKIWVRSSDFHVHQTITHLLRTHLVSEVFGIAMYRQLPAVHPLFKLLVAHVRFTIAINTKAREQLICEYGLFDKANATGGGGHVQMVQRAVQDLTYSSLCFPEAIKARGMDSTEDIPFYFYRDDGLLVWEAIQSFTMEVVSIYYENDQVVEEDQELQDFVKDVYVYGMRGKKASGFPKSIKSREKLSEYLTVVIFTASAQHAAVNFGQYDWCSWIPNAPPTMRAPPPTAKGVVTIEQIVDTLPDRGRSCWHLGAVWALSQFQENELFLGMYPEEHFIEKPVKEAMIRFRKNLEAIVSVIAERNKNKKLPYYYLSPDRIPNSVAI
The assay is described as follows: Inhibition of 5-lipoxygenase-mediated platelet activating factor induced thrombosis in male mice. It is filed as functional.

For assay [2], the target named is T2, Polyunsaturated fatty acid 5-lipoxygenase (Homo sapiens, UniProt P09917).
T2 sequence (P09917 whole entry): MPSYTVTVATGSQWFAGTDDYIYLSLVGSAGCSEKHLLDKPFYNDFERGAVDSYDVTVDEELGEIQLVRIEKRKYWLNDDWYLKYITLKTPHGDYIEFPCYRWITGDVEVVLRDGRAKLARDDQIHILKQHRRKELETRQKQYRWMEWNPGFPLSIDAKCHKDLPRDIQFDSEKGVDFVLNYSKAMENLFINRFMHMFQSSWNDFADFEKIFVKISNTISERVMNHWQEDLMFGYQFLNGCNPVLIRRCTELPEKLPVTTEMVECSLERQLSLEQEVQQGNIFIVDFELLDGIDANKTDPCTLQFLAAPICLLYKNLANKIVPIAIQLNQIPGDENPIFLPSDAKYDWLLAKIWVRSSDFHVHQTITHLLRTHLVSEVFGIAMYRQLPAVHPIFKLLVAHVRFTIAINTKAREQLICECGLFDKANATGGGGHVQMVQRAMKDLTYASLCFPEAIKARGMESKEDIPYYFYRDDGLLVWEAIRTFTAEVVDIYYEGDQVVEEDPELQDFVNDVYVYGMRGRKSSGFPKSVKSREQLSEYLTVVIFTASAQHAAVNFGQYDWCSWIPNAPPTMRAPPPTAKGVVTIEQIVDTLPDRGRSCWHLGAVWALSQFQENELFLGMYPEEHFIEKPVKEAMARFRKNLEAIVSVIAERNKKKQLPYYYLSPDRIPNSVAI
The experiment in a line: (§1) Inhibition of 5-lipoxygenase mediated LTB4 synthesis in A-23187 simulated human whole blood. Type of assay: functional, tissue-based.

In assay [3] the target is T3, Polyunsaturated fatty acid 5-lipoxygenase (Homo sapiens) (UniProt P09917).
T3 sequence (whole entry): T2 sequence (P09917 whole entry)
The description is as §1. It is filed as functional, tissue-based. The conditions noted are these: concentration not given here.

Assay [4] addresses T3, Polyunsaturated fatty acid 5-lipoxygenase (Homo sapiens). The assay is described as follows: Inhibition of 5-lipoxygenase mediated LTB4 synthesis in A-23187 simulated human whole blood at 1 uM concentration. It is filed as functional, tissue-based.
The target is the same in assay [5]. The conditions noted are these: Blood, 1 uM.

Broadly, the ED50 is the dose that gives a 50% effect, or the effect in half of the subjects. A higher ED50 goes with weaker potency. For orientation: IC50 means the midpoint of a concentration-inhibition curve. For orientation: inhibition means the change of the read-out against control, counted positive when it falls.

For `Cc1nccn1-c1ccc(Sc2cccc(C3(C(N)=O)CCOCC3)c2)cc1`, in assay [1], it took a dose of 3.7 mg/kg to reach the 50% effect level (ED50). For the same compound, the midpoint of inhibition in assay [2], the IC50, lay at 230 nM.

Regarding `NC(=O)C1(c2cccc(Sc3ccc(Cn4cccc4)cc3)c2)CCOCC1`, in assay [1], it took a dose of 3 mg/kg to reach the 50% effect level (ED50). Also, half-maximal inhibition in assay [2] (IC50) was put at 270 nM.

For the compound `Cc1cc(C)n(-c2ccc(Sc3cccc(C4(C(N)=O)CCOCC4)c3)cc2)n1`, the IC50 in assay [2] is over 1000 nM. In addition, the inhibition in assay [3] was -1%.

Take `NC(=O)C1(c2cccc(Sc3ccc(-n4cnnc4)cc3)c2)CCOCC1`: the inhibition in assay [4] is 1%. The IC50 in assay [2] was over 1000 nM.

`Cc1nccn1-c1ccc(Sc2cccc(C3(C(N)=O)CC4CCC(C3)O4)c2)cc1` (stereo unspecified): in assay [2], the half-maximal inhibitory concentration (IC50) was over 1000 nM. Besides, the inhibition in assay [5] is -7%.

The compound `Cc1nccn1-c1ccc(Sc2cccc([C@]3(C(N)=O)CC4CC[C@H](C3)O4)c2)cc1` registered an ED50 in assay [1] of 7 mg/kg. Also, 830 nM corresponded to half-maximal inhibition in assay [2] (IC50).

Consider `CO/N=C/C1(c2cccc(Sc3ccc(-n4ccnc4C)cc3)c2)CCOCC1`, for which the ED50 in assay [1] came out at 2 mg/kg. In assay [2], this compound gave an IC50 of 150 nM.

For `Cc1nccn1Cc1ccc(Sc2cccc(C3(C(N)=O)CCOCC3)c2)cc1`, the 50% effective dose (ED50) in assay [1] is over 20 mg/kg. Besides, in assay [2], it took 140 nM to reach half-maximal inhibition (IC50).

The values above are taken from ChEMBL document CHEMBL1145254, “5-Lipoxygenase inhibitors: convenient synthesis of 4-[3-(4-heterocyclylphenylthio)phenyl]-3,4,5,6-tetrahydro-2H-pyran-4-carboxamide analogues” (Bioorg Med Chem Lett, 2005).
